Reference: patent US20130030012A1, “COMPOUNDS” (Glaxo Group Limited, priority 2011, published 2013)
Like-named read-outs stand apart in the source and are kept apart here.

What was measured:
[1] = biological target: T1, recombinant human Lp-PLA2 (Homo sapiens, UniProt Q13093); assay: Recombinant human Lp-PLA2 assay (rhLp-PLA2, PED6 assay); type: biochemical; details: upper limit for pIC50 in this assay is 9.3
T1 sequence (Q13093 22-441): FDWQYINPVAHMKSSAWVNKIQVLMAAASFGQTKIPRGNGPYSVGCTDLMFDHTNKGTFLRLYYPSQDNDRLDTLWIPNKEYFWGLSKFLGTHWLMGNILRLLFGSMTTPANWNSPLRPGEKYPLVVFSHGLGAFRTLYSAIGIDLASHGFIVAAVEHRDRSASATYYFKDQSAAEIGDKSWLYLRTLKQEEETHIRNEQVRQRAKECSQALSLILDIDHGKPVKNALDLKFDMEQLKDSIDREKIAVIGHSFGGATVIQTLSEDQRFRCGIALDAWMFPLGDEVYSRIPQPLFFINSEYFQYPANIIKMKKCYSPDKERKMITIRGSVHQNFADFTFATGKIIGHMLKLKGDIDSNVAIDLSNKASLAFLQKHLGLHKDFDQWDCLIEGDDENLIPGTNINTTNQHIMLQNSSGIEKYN
From the text: (1) Recombinant Human Lp-PLA2 Assay (rhLp-PLA2) (Also Referred to as “PED6” Assay)
N-((6-(2,4-dinitrophenyl)amino)-hexanoyl)-2-(4,4-difluoro-5,7-dimethyl-4-bora-3a,4a-diaza-s-indacene-3-pentanoyl)-1-hexadecanoyl-sn-glycero-3-phosphoethanolamine, triethylammonium salt (PED6) is a commercially available fluorescently-labeled phospholipid, which is commercially available from Invitrogene and Molecular Probes. There is a quenching […] and a Bodipy fluorescein (FL) group in the sn2 position. Upon cleavage with Lp-PLA2, the Bodipy FL group is liberated and then may result in an increase in fluorescence. Inhibitors of Lp-PLA2 therefore prevent this cleavage and no fluorescent increase is observed.
The PED6 assay was run as an unquenched 10 μL assay. The source plate containing the compounds to be tested was prepared by making 1:3 (by volume) serial dilution of the compounds within DMSO on 384-well microplate. Then, 0.01 μL of the compounds on compound source plate were transferred into 384 well Greiner 784076 (black) plates using ECHO liquid dispenser. 5 μL of recombinant human Lp-PLA2 enzyme (4 nM (or 110 pM) rhLp-PLA2 in assay buffer of 50 mM HEPES, pH 7.4, 150 mM NaCl, 1 mM CHAPS) was added to each well of the plate. Plates were centrifuged for 10 sec at 500 rpm. After 30 minutes preincubation, 5 μL of substrate ([…] (or 5 μM) PED6 [from 5 mM DMSO stock] in assay buffer of 50 mM HEPES, pH 7.4, 150 mM NaCl, 1 mM CHAPS) was added to 384 well Greiner 784076 (black) plates. Plates were centrifuged for 10 sec at 500 rpm. The plate was covered to protect it from light and incubated for 20 min at room temperature. The plates were read for fluorescence intensity at ex: 480/em: 540 using ViewLux microplate imager for Envision spectrofluoroimeters pIC50 data, curve and QC analysis was conducted by using XL fit module in Excel.
The compounds described below were tested generally according to the PED6 assay described above.

Lp-PLA2 in human plasma = biological target: T2, Lp-PLA2 in human plasma (Homo sapiens, UniProt Q13093); assay: Lp-PLA2 human plasma assay (Thio-PAF assay); type: biochemical; details: pooled human plasma; read-out: pIC50 values in the thio-PAF assay (converted)
T2 construct: from tissue; host or cells: pooled human plasma
T2 sequence (Q13093 22-441): T1 sequence (Q13093 22-441)
From the text: The human plasma assay utilizes a thioester analog of PAF (phosphatidylcholine), where hydrolysis yields to the formation of a phospholipid containing a free thiol group. The amount of thiol is quantitated continuously by reacting with CPM (7-diethylamino-3-(4′-maleimidylphenyl)-4-methylcoumarin), a maleimide which increases in fluoresence after Michael addition of thiols. This assay may detect the activity of Lp-PLA2 in human plasma, as determined by specific inhibition by Lp-PLA2 inhibitors.
The thio-PAF assay was run as a quenched 15 μL assay. Compounds source plate was prepared by making 1:3 (by volume) serial dilution of the compounds into pure DMSO on 384-well microplate. 0.01 μL of compounds on compound source plate were transferred to 384 well Greiner 784076 (black) low-volume plates by ECHO liquid dispenser. 8 μL pooled human plasma, which was previously aliquoted and frozen, was added. Plates were centrifuged for 10 sec at 500 rpm. After 30 minutes preincubation, 2 μL of substrate solution comprising 2.5 mM 2-thio-PAF [from ethanol stock], […] CPM [from a DMSO stock] and 3.2 mM NEM (N-ethylmaleimide) [made fresh daily in DMSO] in assay buffer of 50 mM HEPES, pH 7.4, 150 mM NaCl, 1 mM CHAPS was added to 384 well Greiner 784076 (black) low-volume plates by BRAVO liquid handling station. After 2 mins, reaction was quenched with 5 μL of 5% aqueous trifluoroacetic acid (TFA). Plates were covered to protect from light and incubated for 40 min at room temperature. Plates were read at ex: 380/em: 485 using—Envision microplate reader. pIC50 data, curve and QC analysis was conducted by using XLFit module in Excel.

[2] = Table 1, read-out: rhLp-PLA2 (PED6 assay) (pIC50) (converted)
[3] = read-out: pIC50 values in the PED6 assay (converted)

SMILES	IC50 [1, 2] [nM]	IC50 [1, 3] [nM]	IC50 (Lp-PLA2 in human plasma) [nM]
CN1CCCn2c1cc(OCc1cc(F)c(Oc3cccc(F)c3)c(F)c1)nc2=O [Example 78, 8-((3,5-difluoro-4-(3-fluorophenoxy)benzyl)oxy)-1-methyl-3,4-dihydro-1H-pyrimido[1,6-a]pyrimidin-6(2H)-one]	–	≤ 10	≤ 1000
CN1CCCn2c1cc(OCc1ccc(Oc3cccc(F)c3)c(C#N)c1)nc2=O [Example 80, 2-(3-fluorophenoxy)-5-(((1-methyl-6-oxo-2,3,4,6-tetrahydro-1H-pyrimido[6-a]pyrimidin-8-yl)oxy)methyl)benzonitrile]	–	≤ 1	≤ 100
CN1CCCn2c1cc(OCc1cc(F)c(Oc3cccc(C(F)(F)F)c3)c(F)c1)nc2=O [Example 81, 8-((3,5-difluoro-4-(3-(trifluoromethyl)phenoxy)benzyl)oxy)-1-methyl-3,4-dihydro-1H-pyrimido[1,6-a]pyrimidin-6(2H)-one]	–	≤ 1	≤ 100
CN1CCCn2c1cc(OCc1cc(F)c(Oc3ccc(F)c(Cl)c3)c(F)c1)nc2=O [Example 83, 8-((4-(3-chloro-4-fluorophenoxy)-3,5-difluorobenzyl)oxy)-1-methyl-3,4-dihydro-1H-pyrimido[1,6-a]pyrimidin-6(2H)-one]	< 0.501	≤ 1	≤ 100
CN1CCCn2c1cc(OCc1ccc(Oc3ccc(F)c(Cl)c3)c(C#N)c1)nc2=O [Example 84, 2-(3-chloro-4-fluorophenoxy)-5-(((1-methyl-6-oxo-2,3,4,6-tetrahydro-1H-pyrimido[1,6-a]pyrimidin-8-yl)oxy)methyl)benzonitrile]	–	≤ 1	≤ 100
CN1CCCn2c1cc(OCc1cc(F)c(Oc3ccc(F)cc3)c(F)c1)nc2=O [Example 87, 8-((3,5-difluoro-4-(4-fluorophenoxy)benzyl)oxy)-1-methyl-3,4-dihydro-1H-pyrimido[1,6-a]pyrimidin-6(2H)-one]	–	≤ 10	≤ 1000
CN1CCCn2c1cc(OCc1cc(F)c(Oc3ccc(F)c(C(F)(F)F)c3)c(F)c1)nc2=O [Example 88, 8-((3,5-difluoro-4-(4-fluoro-3-(trifluoromethyl)phenoxy)benzyl)oxy)-1-methyl-3,4-dihydro-1H-pyrimido[1,6-a]pyrimidin-6(2H)-one]	–	≤ 1	≤ 100
O=c1nc(OCc2cc(F)c(Oc3ccc(F)c(F)c3)c(F)c2)cc2n1CCCN2 [Example 91, 8-((4-(3,4-difluorophenoxy)-3,5-difluorobenzyl)oxy)-3,4-dihydro-1H-pyrimido[1,6-a]pyrimidin-6(2H)-one]	–	≤ 1	≤ 100
N#Cc1cc(COc2cc3n(c(=O)n2)CCCN3)ccc1Oc1ccc(F)c(F)c1 [Example 94, 2-(3,4-difluorophenoxy)-5-(((6-oxo-2,3,4,6-tetrahydro-1H-pyrimido[1,6-a]pyrimidin-8-yl)oxy)methyl)benzonitrile]	–	≤ 1	≤ 100
CN1CCCn2c1cc(OCc1ccc(Oc3ccc(Cl)c(F)c3)c(C#N)c1)nc2=O [Example 96, 2-(4-chloro-3-fluorophenoxy)-5-(((1-methyl-6-oxo-2,3,4,6-tetrahydro-1H-pyrimido[1,6-a]pyrimidin-8-yl)oxy)methyl)benzonitrile]	–	≤ 1	≤ 100

Second part, the compound after the results:

IC50 [1, 2] [nM]	IC50 [1, 3] [nM]	IC50 (Lp-PLA2 in human plasma) [nM]	SMILES
1.26	≤ 10	≤ 100	CN1CCCn2c1cc(OCc1ccc(Oc3cccnc3)c(C#N)c1)nc2=O [Example 76, 5-(((1-methyl-6-oxo-2,3,4,6-tetrahydro-1H-pyrimido[1,6-a]pyrimidin-8-yl)oxy)methyl)-2-(pyridin-3-yloxy)benzonitrile]
–	≤ 10	≤ 1000	CN1CCCn2c1cc(OCc1ccc(Oc3cccc(C(F)(F)F)c3)cc1)nc2=O [Example 77, 1-methyl-8-((4-(3-(trifluoromethyl)phenoxy)benzyl)oxy)-3,4-dihydro-1H-pyrimido[1,6-a]pyrimidin-6(2H)-one]
0.794	≤ 1	≤ 100	CN1CCCn2c1cc(OCc1cc(F)c(Oc3cc(F)cc(F)c3)c(F)c1)nc2=O [Example 79, 8-((4-(3,5-difluorophenoxy)-3,5-difluorobenzyl)oxy)-1-methyl-3,4-dihydro-1H-pyrimido[1,6-a]pyrimidin-6(2H)-one]
–	≤ 1	≤ 100	CN1CCCn2c1cc(OCc1cc(F)c(Oc3ccc(Cl)c(F)c3)c(F)c1)nc2=O [Example 82, 8-((4-(4-chloro-3-fluorophenoxy)-3,5-difluorobenzyl)oxy)-1-methyl-3,4-dihydro-1H-pyrimido[1,6-a]pyrimidin-6(2H)-one]
–	≤ 10	≤ 1000	CN1CCCn2c1cc(OCc1ccc(Oc3cccc(C#N)c3)c(F)c1)nc2=O [Example 85, 3-(2-fluoro-4-(((1-methyl-6-oxo-2,3,4,6-tetrahydro-1H-pyrimido[1,6-a]pyrimidin-8-yl)oxy)methyl)phenoxy)benzonitrile]
–	≤ 10	≤ 100	CN1CCCn2c1cc(OCc1cc(F)c(Oc3ccc(C(F)(F)F)cc3)c(F)c1)nc2=O [Example 89, 8-((3,5-difluoro-4-(4-(trifluoromethyl)phenoxy)benzyl)oxy)-1-methyl-3,4-dihydro-1H-pyrimido[1,6-a]pyrimidin-6(2H)-one]
–	≤ 1	≤ 1000	CN1CCCn2c1cc(OCc1cc(F)c(Oc3cccc(Cl)c3)c(F)c1)nc2=O [Example 90, 8-((4-(3-chlorophenoxy)-3,5-difluorobenzyl)oxy)-1-methyl-3,4-dihydro-1H-pyrimido[1,6-a]pyrimidin-6(2H)-one]
–	≤ 10	≤ 100	N#Cc1cc(COc2cc3n(c(=O)n2)CCCN3)ccc1Oc1ccc(C(F)(F)F)cn1 [Example 92, 5-(((6-oxo-2,3,4,6-tetrahydro-1H-pyrimido[1,6-a]pyrimidin-8-yl)oxy)methyl)-2-((5-(trifluoromethyl)pyridin-2-yl)oxy)benzonitrile]
≤ 0.501	≤ 1	≤ 100	O=c1nc(OCc2cc(F)c(Oc3ccc(F)c(C(F)(F)F)c3)c(F)c2)cc2n1CCCN2 [Example 93, 8-((3,5-difluoro-4-(4-fluoro-3-(trifluoromethyl)phenoxy)benzyl)oxy)-3,4-dihydro-1H-pyrimido[1,6-a]pyrimidin-6(2H)-one]
–	≤ 1	≤ 100	CN1CCCn2c1cc(OCc1ccc(Oc3ccc(Cl)nc3)c(F)c1)nc2=O [Example 95, 8-((4-((6-chloropyridin-3-yl)oxy)-3-fluorobenzyl)oxy)-1-methyl-3,4-dihydro-1H-pyrimido[1,6-a]pyrimidin-6(2H)-one]
